# In the supplement of paper PMC11061612:
# Legend:
# Experiment in all cases: Bliss excess, mean over the matrix (fraction); higher = more synergy
# [1] = test system: J82 (Bladder Carcinoma)
# Outline: (§1)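 Bliss excess equals the observed combination effect minus the expected value EA + EB − EA·EB, where EA and EB are the effects of each agent alone. Combination Emax is the second-highest inhibition within the matrix. Inhibition was scaled from CellTiter-Glo 2.0 luminescence, with 0 set by vehicle wells and 1 by blank wells, after 72 hours of two-drug dosing of cells plated in 1536-well plates.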
# [2] = test system: SW1088 (Low Grade Glioma)
# Outline: as §1
# [3] = test system: MDA-MB-157 (Breast Carcinoma)
# Outline: as §1
# [4] = test system: DOV13 (Ovarian Carcinoma)
# Outline: as §1
# [5] = test system: CAL-78 (Chondrosarcoma)
# Outline: as §1
# [6] = test system: HT-29 (Colorectal Carcinoma)
# Outline: as §1
# [7] = test system: IHH-4 (Thyroid Gland Carcinoma)
# Outline: as §1
# [8] = test system: MFH-ino (Other Solid Carcinomas)
# Outline: as §1
# [9] = test system: EM-2 (Chronic Myelogenous Leukemia)
# Outline: as §1
# [10] = test system: TGBC24TKB (Biliary Tract Carcinoma)
# Outline: as §1
# [11] = test system: G-292-Clone-A141B1 (Osteosarcoma)
# Outline: as §1
# [12] = test system: KATOIII (Gastric Carcinoma)
# Outline: as §1
# [13] = test system: DB (B-Cell Non-Hodgkin's Lymphoma)
# Outline: as §1
# [14] = test system: HCC2157 (Breast Carcinoma)
# Outline: as §1
# [15] = test system: NALM-6 (B-Lymphoblastic Leukemia)
# Outline: as §1
# [16] = test system: HPAC (Pancreatic Carcinoma)
# Outline: as §1
# [17] = test system: SUIT-2 (Pancreatic Carcinoma)
# Outline: as §1
# [18] = test system: SW1990 (Pancreatic Carcinoma)
# Outline: as §1
# [19] = test system: SW756 (Cervical Carcinoma)
# Outline: as §1
# [20] = test system: IGR-1 (Melanoma)
# Outline: as §1
Structure (SMILES),Bliss excess [1],Bliss excess [2],Bliss excess [3],Bliss excess [4],Bliss excess [5],Bliss excess [6],Bliss excess [7],Bliss excess [8],Bliss excess [9],Bliss excess [10],Bliss excess [11],Bliss excess [12],Bliss excess [13],Bliss excess [14],Bliss excess [15],Bliss excess [16],Bliss excess [17],Bliss excess [18],Bliss excess [19],Bliss excess [20]
"CCN(CCO)CCCOc1ccc2c(Nc3cc(CC(=O)Nc4cccc(F)c4)[nH]n3)ncnc2c1 [AZD2811] + O=C(c1cc(Cc2n[nH]c(=O)c3ccccc23)ccc1F)N1CCN(C(=O)C2CC2)CC1 [Olaparib] (first compound max 1 µM, 7x7, partner max 10 µM)",-0.0207,-0.0539,0.032,-0.0824,0.0006,0.0007,0.0229,-0.0318,-0.0589,-0.0102,0.0252,-0.0332,-0.0544,-0.0105,-0.0086,0.0032,-0.0254,-0.0302,-0.0232,-0.0059
"CN(CCO)CC[C@H](CSc1ccccc1)Nc1ccc(S(=O)(=O)NC(=O)c2ccc(N3CCC([C@@H](O)c4ccccc4-c4ccc(Cl)cc4)CC3)cc2)cc1S(=O)(=O)C(F)(F)F [AZD4320] + C1CN(CCC1(C(=O)N[C@@H](CCO)C2=CC=C(C=C2)Cl)N)C3=NC=NC4=C3C=CN4 [Capivasertib] (first compound max 1 µM, 7x7, partner max 3 µM)",-0.031,0.0242,-0.0178,0.0131,-0.0482,-0.0331,-0.0253,-0.0527,0.0261,0.0015,-0.0041,-0.0385,-0.0196,0.0191,0.0091,-0.0571,-0.054,-0.049,-0.0506,-0.0557
"CN(CCO)CC[C@H](CSc1ccccc1)Nc1ccc(S(=O)(=O)NC(=O)c2ccc(N3CCC([C@@H](O)c4ccccc4-c4ccc(Cl)cc4)CC3)cc2)cc1S(=O)(=O)C(F)(F)F [AZD4320] + C=CCn1c(=O)c2cnc(Nc3ccc(N4CCN(C)CC4)cc3)nc2n1-c1cccc(C(C)(C)O)n1 [AZD1775] (first compound max 1 µM, partner max 1 µM)",-0.107,0.0064,0.0043,0.0352,0.073,0.0055,0.0051,-0.0288,-0.0381,-0.0323,0.0335,-0.043,0.0616,-0.0386,0.0725,-0.0048,-0.0088,0.0307,-0.0225,0.146
"CN(CCO)CC[C@H](CSc1ccccc1)Nc1ccc(S(=O)(=O)NC(=O)c2ccc(N3CCC([C@@H](O)c4ccccc4-c4ccc(Cl)cc4)CC3)cc2)cc1S(=O)(=O)C(F)(F)F [AZD4320] + CCN(CCO)CCCOc1ccc2c(Nc3cc(CC(=O)Nc4cccc(F)c4)[nH]n3)ncnc2c1 [AZD2811] (first compound max 1 µM, 7x7, partner max 1 µM)",-0.0304,-0.0659,0.0101,0.0816,0.117,-0.0074,-0.0372,-0.0406,-0.0327,0.0337,0.0019,-0.0434,0.0983,0.0907,0.0868,0.0486,-0.0472,-0.0214,-0.0334,0.148
"CN(CCO)CC[C@H](CSc1ccccc1)Nc1ccc(S(=O)(=O)NC(=O)c2ccc(N3CCC([C@@H](O)c4ccccc4-c4ccc(Cl)cc4)CC3)cc2)cc1S(=O)(=O)C(F)(F)F [AZD4320] + CN(C)CCCOc1ccc(-c2ccc3ncc4c(c3c2)n(C2CCOCC2)c(=O)n4C)cn1 [AZD0156] (first compound max 1 µM, 7x7, partner max 1 µM)",-0.0464,-0.033,-0.0046,-0.0021,-0.004,-0.0238,-0.022,-0.059,-0.0192,0.0025,-0.015,-0.034,0.0373,0.009,0.0217,-0.0709,-0.0407,-0.0411,-0.0362,-0.0149
"CN(CCO)CC[C@H](CSc1ccccc1)Nc1ccc(S(=O)(=O)NC(=O)c2ccc(N3CCC([C@@H](O)c4ccccc4-c4ccc(Cl)cc4)CC3)cc2)cc1S(=O)(=O)C(F)(F)F [AZD4320] + C[C@@H]1COCCN1C2=NC(=NC(=C2)C3(CC3)[S@](=N)(=O)C)C4=C5C=CNC5=NC=C4 [AZD6738] (first compound max 1 µM, 7x7, partner max 10 µM)",-0.0144,-0.0732,-0.0254,-0.0448,0.0071,-0.0073,-0.0231,-0.0785,0.005,-0.0245,-0.0265,-0.0397,0.0249,0.0014,0.0379,-0.007,-0.098,0.0112,-0.0658,0.0464
"CN(CCO)CC[C@H](CSc1ccccc1)Nc1ccc(S(=O)(=O)NC(=O)c2ccc(N3CCC([C@@H](O)c4ccccc4-c4ccc(Cl)cc4)CC3)cc2)cc1S(=O)(=O)C(F)(F)F [AZD4320] + C[C@@H](Nc1cc(F)cc(F)c1)c1cc(C(=O)N(C)C)cc2c(=O)cc(N3CCOCC3)oc12 [AZD8186] (first compound max 1 µM, 7x7, partner max 3 µM)",-0.0061,0.0357,0.0338,-0.0141,0.0323,0.0097,0.0438,-0.0163,0.0055,0.0011,-0.0014,-0.0856,-0.0096,0.0774,0.0514,-0.0014,0.025,0.0048,-0.0213,0.0019
"CN(CCO)CC[C@H](CSc1ccccc1)Nc1ccc(S(=O)(=O)NC(=O)c2ccc(N3CCC([C@@H](O)c4ccccc4-c4ccc(Cl)cc4)CC3)cc2)cc1S(=O)(=O)C(F)(F)F [AZD4320] + Cc1cc2ncnn2cc1Nc1ncc2c(n1)n(C1CCOCC1)c(=O)n2C [AZD7648] (first compound max 1 µM, 7x7, partner max 10 µM)",-0.0435,-0.0184,-0.0225,-0.0588,-0.0388,-0.0293,-0.0451,-0.0545,0.0184,0.0059,-0.032,-0.0343,-0.0149,0.0378,-0.0061,-0.0292,-0.0389,-0.0418,-0.051,-0.0137
"CN(CCO)CC[C@H](CSc1ccccc1)Nc1ccc(S(=O)(=O)NC(=O)c2ccc(N3CCC([C@@H](O)c4ccccc4-c4ccc(Cl)cc4)CC3)cc2)cc1S(=O)(=O)C(F)(F)F [AZD4320] + Cn1cnc2c(F)c(Nc3ccc(Br)cc3Cl)c(C(=O)NOCCO)cc21 [Selumetinib] (first compound max 1 µM, 7x7, partner max 3 µM)",-0.0144,0.0246,0.0259,-0.114,-0.0388,0.02,0.0185,-0.03,0.007,0.0369,-0.0021,-0.0086,-0.0482,0.0119,0.0153,0.0371,0.0126,0.0357,0.0022,0.143
"COc1nnc2ccc(N3CCC(c4ccc(OCCN5CCN(C)C(=O)[C@H]5C)cc4)CC3)nn12 [AZD5153] + C=CCn1c(=O)c2cnc(Nc3ccc(N4CCN(C)CC4)cc3)nc2n1-c1cccc(C(C)(C)O)n1 [AZD1775] (first compound max 1 µM, partner max 1 µM)",0.0514,-0.0364,-0.0313,-0.0561,-0.0766,-0.0532,-0.0294,-0.0837,-0.0217,-0.0367,-0.0475,-0.148,-0.0996,-0.0734,-0.0559,-0.111,0.0152,-0.0567,-0.05,0.0203
"COc1nnc2ccc(N3CCC(c4ccc(OCCN5CCN(C)C(=O)[C@H]5C)cc4)CC3)nn12 [AZD5153] + CC1(C)CCC(CN2CCN(c3ccc(C(=O)NS(=O)(=O)c4ccc(NCC5CCOCC5)c([N+](=O)[O-])c4)c(Oc4cnc5[nH]ccc5c4)c3)CC2)=C(c2ccc(Cl)cc2)C1 [Venetoclax] (first compound max 1 µM, 7x7, partner max 1 µM)",-0.0672,-0.0439,-0.0454,-0.0751,-0.0999,-0.0288,-0.0621,-0.0608,-0.0384,-0.0456,-0.0571,-0.0861,-0.0114,0.0328,-0.0678,-0.0507,-0.0769,-0.0448,-0.0461,-0.0221
"COc1nnc2ccc(N3CCC(c4ccc(OCCN5CCN(C)C(=O)[C@H]5C)cc4)CC3)nn12 [AZD5153] + CCN(CCO)CCCOc1ccc2c(Nc3cc(CC(=O)Nc4cccc(F)c4)[nH]n3)ncnc2c1 [AZD2811] (first compound max 1 µM, 7x7, partner max 1 µM)",-0.0148,-0.0669,-0.0004,-0.0908,-0.0564,-0.0281,0.0167,-0.0811,-0.001,-0.0349,-0.0263,-0.0288,-0.0585,0.0389,-0.0683,-0.0283,-0.0399,-0.0477,-0.0067,0.0249
"COc1nnc2ccc(N3CCC(c4ccc(OCCN5CCN(C)C(=O)[C@H]5C)cc4)CC3)nn12 [AZD5153] + C[C@@H]1COCCN1C2=NC(=NC(=C2)C3(CC3)[S@](=N)(=O)C)C4=C5C=CNC5=NC=C4 [AZD6738] (first compound max 1 µM, 7x7, partner max 10 µM)",0.104,0.0059,-0.0138,-0.0623,0.0093,-0.0307,-0.0118,-0.0801,0.039,0.0292,0.0166,-0.0164,0.0071,-0.0086,-0.0624,0.0368,0.0468,-0.0424,0.0204,0.0759
